# Data as given in US20070105721A1, “Vinylogous 4-Hpyrones and their use in promoting plant growth” (priority 2003, published 2007).
# How the values were obtained:
# Format in all cases: in vivo
# [1] = tested on: Grand Rapids Lettuce seeds (Waltham strain); test: Grand Rapids bioassay
# Procedure: Grand Rapids Lettuce seeds (Waltham strain) were obtained from R.B. Dessert Seed Co. and were frozen in sachets until use. For testing of aqueous samples, 2.5 mL of test solution was applied to three replicates of 40-50 seeds in Petri dishes (90 mm) lined with two layers of Whatman No. 1 filter paper (7 cm). Millipore filtered water (MP water) was used as a control for each experiment and dilutions of each sample were used to ensure the optimum concentration range for activity. Fractions were reconstituted to their original concentration (before fractionation) and dilutions were made using MP water. Petri dishes were sealed with a layer of plastic wrap, and stored in a light proof container. All manipulations involving the seed were carried out in a dark room and germinants, based on the appearance of a radicle, were scored after 48 hours incubation.
# [2] = tested on: Emmenanthe penduliflora seeds; test: Duration of priming required to induce a germination response; conditions: priming in 100 ppb compound 1a, re-drying then incubation; FIG. 5
# Procedure: To determine the duration of priming required to induce a germination response, three replicates of 20 seeds of Emmenanthe penduliflora were soaked in at 23° C. in a 100 ppb compound 1a solution for 1, 5, 10, 20, 40 or 80 min or 3, 6, 12, 24 or 48 hr. The seeds were re-dried for 24 hr at 23° C. and placed on Petri dishes lined with seed germination paper and moistened with de-ionised water. The Petri dishes were incubated at 18° C. in constant darkness. Germination (radicle emergence) was recorded every 2-3 days until germination had ceased.
# Melaleuca carrii seeds = test: Seed vigour enhancement (cumulative germination); conditions: compound 1a at 100 ppb; FIG. 3
# Procedure: (§1) For each species, five replicates of 20 seeds were placed on Petri dishes lined with seed germination paper. The Petri dishes were moistened with de-ionised water (control) or 100 ppb compound 1a. All species were incubated in constant darkness at 12/12 hr alternating temperatures of 7/18° C., 13/26° C. or 18/33° C. Germination was scored on radicle emergence and was recorded every 2-3 days until germination had ceased.
# Hakea undulata seeds = test: Seed vigour enhancement (cumulative germination); conditions: compound 1a at 100 ppb; FIG. 4
# Procedure: as §1
# [3] = tested on: Gompholobium tomentosum seeds; test: Seed vigour enhancement (cumulative germination); conditions: compound 1a at 100 ppb; FIG. 3
# Procedure: as §1
# [4] = tested on: intact or de-hulled Microlaena stipoides seeds; test: Compound 1a as a replacement for de-hulling of grass species; conditions: 100 ppb compound 1a
# Procedure: Intact or de-hulled seeds were employed for this experiment. Seeds were de-hulled manually by carefully extracting the seeds from the surrounding palea and lemma. Three replicates of 25 intact or de-hulled seeds were placed on Petri dishes lined with seed germination paper. The Petri dishes were moistened with de-ionised water (control) or 100 ppb compound 1a. All species were incubated in constant darkness at 18° C. Germination (radicle emergence) was recorded every 2-3 days until germination had ceased.
# Lawrencella davenportii = test: Germination on moist filter paper in petri dishes; conditions: SW 1/10 dilution, compound 1a 10 ppb
# Camissonia califomica = test: Germination on moist filter paper in petri dishes; conditions: SW 1/10 dilution, compound 1a 10 ppb
# [5] = tested on: Acetosa vesicaria (ruby dock); test: Weed germination enhancement; conditions: compound 1a at 100 ppb; note: tested at 0.1 ppm
# Procedure: as §1, with “four” for “five”, “25” for “20”, “(radicle emergence)” for “was scored on radicle emergence and”
# Avena fatua (wild oats) = test: Weed germination enhancement; conditions: compound 1a at 100 ppb; mean ± standard error; note: tested at 0.1 ppm
# Procedure: as §1, with “four” for “five”, “25” for “20”, “(radicle emergence)” for “was scored on radicle emergence and”
# [6] = tested on: Brassica tournefortii (wild turnip); test: Weed germination enhancement; conditions: compound 1a at 100 ppb; note: tested at 0.1 ppm
# Procedure: as §1, with “four” for “five”, “25” for “20”, “(radicle emergence)” for “was scored on radicle emergence and”
# Stylidium affine seeds = test: Native bioassay
# Procedure: (§2) Conostylis aculeata and Stylidium affine seeds were obtained from Nindethana seed service and stored before use. For testing of aqueous samples, three replicates of 20-30 sterilised seeds were added to UV sterilised petri dishes (90 mm), containing two Whatman No. 1 filter papers (7 cm) moistened with the filtered test solution (2.5 mL, 0.22 μm). MP water was used as a control for each experiment and dilutions of each sample were used to ensure the optimum concentration range for activity. Petri dishes were then sealed with parafilm and incubated in the dark at 20±1° C. The seeds were scored on a weekly basis with optimum germination achieved between 4-6 weeks.
# [7] = tested on: Conostylis aculeata seeds; test: Native bioassay
# Procedure: as §2
# Caulanthus heterophyllus = test: Germination on moist filter paper in petri dishes; conditions: SW 1/10 dilution, compound 1a 10 ppb
# Stylidium affine = test: Germination enhancement of species used in amenity horticulture; conditions: compound 1a at 100 ppb; constant darkness at 18° C. Note: tested at 0.1 ppm.
# Procedure: (§3) For each species, three replicates of 25 seeds were placed on Petri dishes lined with seed germination paper. The Petri dishes were moistened with de-ionised water (control) or 100 ppb compound 1a. All species were incubated in constant darkness at 18° C. Germination (radicle emergence) was recorded five times a week.
# Syncarpha vestita = test: as above; conditions: compound 1a at 100 ppb; constant darkness at 18° C. Note: tested at 0.1 ppm.
# Procedure: as §3
# Rhodocoma arida = test: as above; conditions: compound 1a at 100 ppb; constant darkness at 18° C. Note: tested at 0.1 ppm.
# Procedure: as §3
# Conostylis aculeata = test: as above; conditions: compound 1a at 100 ppb; constant darkness at 18° C.; mean ± standard error
# Procedure: as §3
# Emmenanthe penduliflora = test: as above; conditions: compound 1a at 100 ppb; constant darkness at 18° C.
# Procedure: as §3
# Passerina vulgaris = test: as above; conditions: compound 1a at 100 ppb; constant darkness at 18° C. Note: tested at 0.1 ppm.
# Procedure: as §3
# [8] = Neat (neat SW; compound 1a 1 mg/L), mean (SEM)
# [9] = compounds isolated from smoke, mean (SEM)
# [10] = 1/10 (of neat SW; of compound 1a 1 mg/L)
# [11] = 1/100 (of neat SW; of compound 1a 1 mg/L)
# Throughout, for Germination, Emmenanthe penduliflora: tested at 0.1 ppm.
smiles,measurement,setting,value
"Cc1c2ccocc-2oc1=O [Compound 1a, 3-Methyl-2H-furo[2,3-c]pyran-2-one]",Grand Rapids germination,[1]; 1/1 000 000 dilution of compound 1a 1 mg/L,60.9 (2.5) %
same,Grand Rapids germination,[1]; 1/10 000 dilution (of neat SW; of compound 1a 1 mg/L),96.4 (0.6) %
same,Grand Rapids germination,[1]; 1/10 dilution (of neat SW; of compound 1a 1 mg/L),98.4 (0.9) %
same,Grand Rapids germination,[1]; 1/100 000 dilution of compound 1a 1 mg/L,76.9 (1.5) %
same,Grand Rapids germination,[1]; 1/100 dilution (of neat SW; of compound 1a 1 mg/L),98.4 (1.6) %
same,level at which compound 1a is active in promoting germination,[1]; 1/100 dilution of the estimated content of neat smoke water (1 mg per 10 000 L),10^−10 mol/L
same,Grand Rapids germination,[1]; 1/1000 dilution (of neat SW; of compound 1a 1 mg/L),97.0 (0.5) %
same,Grand Rapids germination,[1]; [8],99.4 (0.6) %
same,inhibition of germination,[1]; at higher concentrations of 1a compared to the amount in smoke water,no inhibition of germination is observed
same,"Germination, Grand Rapids",[1]; [9],99.3 (0.7) %
same,duration of priming sufficient to induce germination promotion,[2],1 min
same,"germination rate (cumulative germination), Melaleuca carrii",Melaleuca carrii seeds,improved germination rate
same,"germination rate (cumulative germination), Hakea undulata",Hakea undulata seeds,improved germination rate
same,"germination rate (cumulative germination), Gompholobium tomentosum",[3],improved germination rate
same,"Germination (%), Microlaena stipoides",[4]; De-hulled seeds,100 ± 0.0 a %
same,"Germination (%), Microlaena stipoides",[4]; Intact seeds,78.3 ± 6.3 b %
same,"Germination, Lawrencella davenportii",Lawrencella davenportii,56.3 (±8.5) b %
same,"Germination, Camissonia califomica",Camissonia califomica,85.3 (±4.8) b %
same,"germination percentage, Acetosa vesicaria (ruby dock)",[5],30.0 ± 7.6 b %
same,"germination percentage, Avena fatua (wild oats)",Avena fatua (wild oats),38.0 ± 4.3 b %
same,"germination percentage, Brassica tournefortii (wild turnip)",[6],92.0 ± 2.8 b %
same,Stylidium affine germination,Stylidium affine seeds; 1/10 000 of compound 1a 1 mg/L,39.9 (10.9) %
same,Stylidium affine germination,Stylidium affine seeds; [10],83.4 (3.7) %
same,Stylidium affine germination,Stylidium affine seeds; [11],71.8 (1.7) %
same,Stylidium affine germination,Stylidium affine seeds; 1/1000 of compound 1a 1 mg/L,70.9 (3.1) %
same,Stylidium affine germination,Stylidium affine seeds; [8],79.0 (3.1) %
same,"Germination, Stylidium affine",Stylidium affine seeds; [9],67.9 (2.5) %
same,Conostylis aculeate germination,[7]; 1/10 000 of compound 1a 1 mg/L,29.4 (3.4) %
same,Conostylis aculeate germination,[7]; [10],48.2 (4.0) %
same,Conostylis aculeate germination,[7]; [11],50.6 (6.5) %
same,Conostylis aculeate germination,[7]; 1/1000 of compound 1a 1 mg/L,43.0 (4.5) %
same,Conostylis aculeate germination,[7]; [8],46.3 (3.1) %
same,"Germination, Conostylis aculeata",[7]; [9],46.5 (4.9) %
same,"Germination, Caulanthus heterophyllus",Caulanthus heterophyllus,97.3 (±0.7) b %
same,"Germination, Stylidium affine",Stylidium affine,83.4 ± 3.7 b
same,"Germination, Syncarpha vestita",Syncarpha vestita,77.5 ± 6.3 b
same,"Germination, Rhodocoma arida",Rhodocoma arida,53.3 ± 3.1 b
same,"Germination, Conostylis aculeata",Conostylis aculeata,48.2 ± 3.9 b
same,"Germination, Emmenanthe penduliflora",Emmenanthe penduliflora,82.0 ± 4.2 b
same,"Germination, Passerina vulgaris",Passerina vulgaris,10.0 ± 4.1 b
